# Literature values as cited in US11077125B2, “Ophthalmic composition containing sulfasalazine and hyaluronic acid” (KUKJE PHARMA CO., LTD., priority 2016, dated 2021).
# Conditions: in water
compound,measurement,value
O=C(O)c1cc(/N=N/c2ccc(S(=O)(=O)Nc3ccccn3)cc2)ccc1O [Sulfasalazine],solubility,46.4 µg/mL
